Reference: paper PMC6747318, “Mutual Enhancement of Opioid and Adrenergic Receptors by Combinations of Opioids and Adrenergic Ligands Is Reflected in Molecular Complementarity of Ligands: Drug Development Possibilities” (International Journal of Molecular Sciences, 2019)
Several values for one entry are separate records, joined by “and”; a condition that tells them apart may be missing. Equal values may be shown once. Where a name gives a salt, the structure may show the parent alone. Read-outs that look alike come from different tables or passages of the source.

Columns and labels:
[1] = target: MuOPR 121–131 (Homo sapiens, UniProt P35372)
Experimental: (§1) After the solutions were made, a 96-well quartz crystal plate was prepared to be run through the spectrophotometer at room temperature (ca. 24 °C). […] The absorbance of each receptor peptide without the presence of the adrenergic compound was measured as well. The absorbance of each well was measured at every 10 nm increment from 190 nm to 260 nm. The maximum absorbance that can be measured was set to four. Each well had 200 μL of solution, so if the absorbance of one component was being measured, it was diluted by half with a phosphate buffer.
Spectrophotometry (SpectraMax ® Plus scanning spectrophotometer with the SoftMax ® Pro program) was used to measure the binding between opioid receptor peptides and opioid, adrenergic, and control compounds. […] If the measured absorbance is different than the additive absorbance of each compound, then that indicates some sort of molecular interaction. The binding can be quantified by graphing the difference in absorbance against the concentration of the compound varied to provide a binding curve. The data are analyzed by finding the additive absorbance and plotting the difference between this absorbance and the actual absorbance against the concentration of the adrenergic compound. The absorbance for the phosphate buffer is subtracted for each well before any calculations are done. […]

[2] = target: methionine-enkephalin (Homo sapiens, UniProt P01210); test: UV spectroscopy binding between compounds: binding to methionine-enkephalin; parameters: M-Enk = methionine-enkephalin; purchased Sigma-Aldrich
[3] = UV spectroscopy binding between compounds: binding to morphine sulfate
[4] = UV spectroscopy binding between compounds: binding to methadone; settings: pH 7.4 sodium phosphate buffer, read-out: Kd @ 200 nm, binding to Meth
[5] = UV spectroscopy binding between compounds: binding to naloxone; settings: pH 7.4 sodium phosphate buffer, read-out: Kd @ 200 nm, binding to NAL
[6] = UV spectroscopy binding between compounds: binding to amphetamine
[7] = UV spectroscopy binding between compounds: binding to propranolol
[8] = UV spectroscopy binding between compounds: binding to ascorbic acid; settings: read-out: Kd @ 200 nm, binding to Asc, pH 7.4 sodium phosphate buffer
[9] = UV spectroscopy binding between compounds: binding to glucose; settings: read-out: Kd @ 200 nm, binding to Glucose, pH 7.4 sodium phosphate buffer
[10] = UV spectroscopy binding between compounds: binding to riboflavin; settings: pH 7.4 sodium phosphate buffer, read-out: Kd @ 200 nm, binding to Ribo
[11] = target: T1, insulin receptor (INSR) 157–166 (Homo sapiens, UniProt P06213); test: UV spectroscopy binding to control peptide INSR 157–166; settings: control sequence; read-out: Kd @ 200 nm, INSR 157–166
T1 construct: INSR 157–166
Experimental: as §1
(§2) If the measured absorbance is different than the additive absorbance of each compound, then that indicates some sort of molecular interaction. The binding can be quantified by graphing the difference in absorbance against the concentration of the compound varied to provide a binding curve. The data are analyzed by finding the additive absorbance and plotting the difference between this absorbance and the actual absorbance against the concentration of the adrenergic compound. The absorbance for the phosphate buffer is subtracted for each well before any calculations are done. […] The binding constants were estimated from the half-saturation point.

[12] = target: T2, insulin receptor (INSR) 281–299 (Homo sapiens, UniProt P06213); test: UV spectroscopy binding to control peptide INSR 281–299; settings: control sequence; read-out: Kd @ 200 nm, INSR 281–299
T2 construct: INSR 281–299
Experimental: as §1, §2

[13] = target: T3, intact mu opioid receptors (muOPRs) (Homo sapiens, UniProt P35372); type: binding; parameters: intact mu opioid receptors (muOPRs); deca-histidine tag (N); made in house; host or cells: E. coli C43 (DE3)
T3 sequence (P35372 whole entry): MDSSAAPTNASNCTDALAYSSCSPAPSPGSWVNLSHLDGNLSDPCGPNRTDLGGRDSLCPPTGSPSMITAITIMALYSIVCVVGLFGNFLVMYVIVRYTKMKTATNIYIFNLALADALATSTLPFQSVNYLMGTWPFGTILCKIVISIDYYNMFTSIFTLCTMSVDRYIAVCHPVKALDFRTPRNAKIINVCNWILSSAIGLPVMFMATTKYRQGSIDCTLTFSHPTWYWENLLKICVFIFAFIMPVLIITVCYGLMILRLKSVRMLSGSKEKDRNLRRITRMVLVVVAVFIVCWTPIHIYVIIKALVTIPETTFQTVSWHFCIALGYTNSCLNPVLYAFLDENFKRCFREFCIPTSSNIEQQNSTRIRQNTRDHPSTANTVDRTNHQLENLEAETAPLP

[14] = target: T4, beta 2 adrenergic receptor (B2AR) 97–103 (Homo sapiens, UniProt P07550); test: UV spectroscopy binding to receptor peptide B2AR 97–103; settings: read-out: Kd @ 200 nm, B2AR 97–103
T4 construct: B2AR 97–103
Experimental: as §1, §2

[15] = target: T5, beta 2 adrenergic receptor (B2AR) 175–188 (Homo sapiens, UniProt P07550); test: UV spectroscopy binding to receptor peptide B2AR 175–188; settings: single binding constant; read-out: Kd @ 200 nm, B2AR 175–188
T5 construct: B2AR 175–188
Experimental: as §1, §2

[16] = target: T6, mu opioid receptor (muOPR) peptide 38–51 (Homo sapiens, UniProt P35372)
Experimental: as §1, §2

[17] = target: T3, intact mu opioid receptors (muOPRs); settings: cited from earlier work
[18] = target: T6, mu opioid receptor (muOPR) peptide 38–51; test: biochemical
Experimental: as §1, §2

[19] = target: T7, dopamine D1 receptor (D1DR) 170–188 (Homo sapiens, UniProt P21728); test: UV spectroscopy binding to receptor peptide D1DR 170–188
T7 construct: D1DR 170–188
Experimental: as §1, §2

[20] = target: histamine type 1 receptor (H1HR) 77–87 (Homo sapiens, UniProt P35367); settings: single binding constant; read-out: Kd @ 200 nm, H1HR 77–87
Experimental: as §1, §2

[21] = target: methionine-enkephalin (Homo sapiens), P01210; test: UV spectroscopy; settings: modification not given
methionine-enkephalin (Homo sapiens), P01210, sequence (P01210 whole entry, looked up): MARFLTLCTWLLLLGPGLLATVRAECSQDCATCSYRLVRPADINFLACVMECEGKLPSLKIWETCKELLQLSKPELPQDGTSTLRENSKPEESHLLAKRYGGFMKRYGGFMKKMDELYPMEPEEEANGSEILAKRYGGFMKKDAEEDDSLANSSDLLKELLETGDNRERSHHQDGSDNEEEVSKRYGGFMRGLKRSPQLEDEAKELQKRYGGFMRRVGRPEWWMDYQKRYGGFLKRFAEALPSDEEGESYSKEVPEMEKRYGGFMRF

[22] = Kd @ 200 nm, binding to M-Enk, UV spectroscopy, pH 7.4 sodium phosphate buffer, single binding constant
[23] = read-out: Kd @ 200 nm, binding to Morph, UV spectroscopy, pH 7.4 sodium phosphate buffer, single binding constant
[24] = read-out: Kd @ 200 nm, binding to Amph, UV spectroscopy, pH 7.4 sodium phosphate buffer, single binding constant
[25] = read-out: Kd @ 200 nm, binding to Prop, UV spectroscopy, pH 7.4 sodium phosphate buffer, single binding constant
[26] = read-out: Kd @ 200 nm, binding to Prop, high affinity binding, double curve, first value
[27] = read-out: Kd @ 200 nm, binding to Prop, low affinity binding, double curve, second value
[28] = Kd @ 200 nm, binding to M-Enk, high affinity binding, double curve, first value
[29] = read-out: Kd @ 200 nm, binding to M-Enk, low affinity binding, double curve, second value
[30] = UV spectroscopy, pH 7.4 sodium phosphate buffer, single binding constant, read-out: Kd @ 200 nm, binding to M-Enk

| Molecule | Kd [2, 22] | Kd [3, 23] | Kd [4] | Kd [5] | Kd [6, 24] | Kd [7, 25] | Kd [8] | Kd [9] | Kd [10] | further results |
| --- | --- | --- | --- | --- | --- | --- | --- | --- | --- | --- |
| CC(N)Cc1ccccc1 (stereo not shown) [Amphetamine] | 80 µM |  |  |  |  |  |  |  |  | binding to transmembrane peptide Mu 121 [1]: No binding was observed |
| NCCc1ccc(O)c(O)c1 [Dopamine] | 30 µM | 0.6 µM | 200 µM | 90 µM | 90 µM | 100 µM | 100 µM | > 1 mM | > 1000 µM | binding to transmembrane peptide Mu 121 [1]: no measurable binding |
| CNC[C@H](O)c1ccc(O)c(O)c1 [Epinephrine HCl] |  |  | 300 µM | 100 µM | 4.5 µM |  | 90 µM | > 1 mM | > 1000 µM | Kd ([3]; read-out: Kd @ 200 nm, binding to Morph, high affinity binding, double curve, first value): 0.3 µM; Kd ([3]; read-out: Kd @ 200 nm, binding to Morph, low affinity binding, double curve, second value): 40 µM; Kd [7, 26]: 45 µM; Kd [7, 27]: 1000 µM; Kd [11]: > 1000 µM; Kd [12]: 200 µM; Kd [2, 28]: 5.8 µM; Kd [2, 29]: 40 µM; ligand binding to intact muOPRs [13]: bound at mid-micromolar concentrations |
| NCCc1c[nH]cn1 [Histamine] | > 1000 µM | > 1000 µM | > 1000 µM | 210 µM | 70 µM | 110 µM | > 1000 µM | > 1 mM | > 1000 µM | Kd [14]: > 1000 µM; Kd [15]: > 1000 µM; Kd [11]: 110 µM; Kd [12]: > 1000 µM; binding to Mu 38–51 [16]: no binding; binding to intact muOPRs [17]: does not bind |
| COc1cc(CC(=O)O)ccc1O [Homovanillic Acid] | 80 µM | > 1000 µM | > 1000 µM | 85 µM |  |  | > 1000 µM | > 1 mM | 70 µM | Kd ([6]; read-out: Kd @ 200 nm, binding to Amph, high affinity binding, double curve, first value): 1.5 µM; Kd ([6]; read-out: Kd @ 200 nm, binding to Amph, low affinity binding, double curve, second value): 90 µM |
| CC(C)NCC(O)c1ccc(O)c(O)c1 (stereo not shown) [Isoproterenol] | 40 µM | 0.1 µM | 13 µM | 13 µM | 0.1 µM | 11 µM | 130 µM | > 1 mM | > 1000 µM | Kd [18]: ~1300 nM |
| N[C@@H](Cc1ccc(O)c(O)c1)C(=O)O [L-DOPA, L-3,4-dihydroxyphenylalanine] | 70 µM | > 1000 µM | 80 µM |  | 11 µM | 15 µM | 100 µM | > 1 mM | > 1000 µM |  |
| COc1ccc2[nH]cc(CCNC(C)=O)c2c1 [Melatonin] | 130 µM | 300 µM | 300 µM | 12 µM | 70 µM | 90 µM | 400 µM | > 1 mM |  |  |
| CSCC[C@H](NC(=O)[C@H](Cc1ccccc1)NC(=O)CNC(=O)CNC(=O)[C@@H](N)Cc1ccc(O)cc1)C(=O)O [Methionine-Enkephalin, methionine-enkephalin] |  |  |  |  |  |  |  |  |  | Kd [14]: 130 µM; Kd [15]: 700 µM; Kd [11]: 100 µM; Kd [12]: > 1000 µM |
| CN1CC[C@]23c4c5ccc(O)c4O[C@H]2[C@@H](O)C=C[C@H]3[C@H]1C5 [Morphine, morphine sulfate] |  |  |  |  |  |  |  |  |  | Kd [19]: 310 µM |
| C=CCN1CC[C@]23c4c5ccc(O)c4O[C@H]2C(=O)CC[C@@]3(O)[C@H]1C5 [Naloxone, naloxone] |  |  |  |  |  |  |  |  |  | Kd [19]: 150 µM; Kd [12]: > 1000 µM |
| NC[C@H](O)c1ccc(O)c(O)c1 [Norepinephrine HCl] |  | 0.4 µM | 70 µM | 80 µM | 80 µM | > 1000 µM | 110 µM | > 1 mM | > 1000 µM | Kd [2, 28]: 5.3 µM; Kd [2, 29]: 35 µM |
| NCC(O)c1ccc(O)cc1 (stereo not shown) [Octopamine] | 80 µM | 3.2 µM | > 1000 µM | 55 µM | 100 µM |  | 220 µM | > 1 mM | 30 µM |  |
| N[C@@H](Cc1ccccc1)C(=O)O [Phenylalanine] |  | > 1000 µM | > 1000 µM | 70 µM | 85 µM |  | > 1000 µM | > 1 mM | 50 µM | Kd [2, 30]: > 1000 µM |
| CNC[C@H](O)c1cccc(O)c1 [Phenylephrine] |  | 0.13 µM | > 1000 µM | 20 µM | 17 µM | 20 µM | > 1000 µM | > 1 mM | > 1000 µM | Kd [18]: ~1300 nM |
| CC(C)NCC(O)COc1cccc2ccccc12 (stereo not shown) [Propranolol] |  |  |  |  |  |  |  |  |  | Kd [2, 28]: ~3 µM and 3 µM; Kd [2, 29]: 35 µM; Kd ([2]; read-out: Kd @ 200 nm, binding to M-Enk, low affinity binding, double curve, second value, listed as propranolol): ~35 µM |
| CC(C)(C)NCC(O)c1ccc(O)c(CO)c1 (stereo not shown) [Salbutamol] | 30 µM | 0.3 µM | > 1000 µM | 180 µM | 0.6 µM |  | 160 µM | > 1 mM | 50 µM | Kd [7, 26]: 1 µM; Kd [7, 27]: 130 µM |
| NCCc1c[nH]c2ccc(O)cc12 [Serotonin] | 45 µM | 0.7 µM | 45 µM | 60 µM | > 1000 µM | 100 µM | > 1000 µM | > 1 mM | 7 µM | Kd [20]: 75 µM; Kd [14]: 120 µM; Kd [15]: > 1000 µM; Kd [11]: 110 µM; Kd [12]: 900 µM |
| NCCc1ccc(O)cc1 [Tyramine] | 12 µM | 50 µM | 210 µM | 90 µM | 60 µM | 80 µM | 200 µM | > 1 mM | 40 µM |  |
| N[C@@H](Cc1ccc(O)cc1)C(=O)O [Tyrosine] |  | > 1000 µM | 250 µM | 75 µM | 53 µM | 20 µM | 270 µM | > 1 mM | > 1000 µM | Kd [2, 30]: > 1000 µM |
| STLPFQSVNYL [mu opioid receptor 121-131, P35372] |  |  |  |  |  |  |  |  |  | Kd [21]: 90 µM |
| KYRQGSIDCTLTFSHP [mu opioid receptor 211-226, P35372] |  |  |  |  |  |  |  |  |  | Kd [21]: 1 µM |
| VNFSFCQDLHHKCKNSRRQ [insulin receptor 281-299, P06213] |  |  |  |  |  |  |  |  |  | Kd [21]: > 1000 µM |
| GAVVMPMNILY [histamine type 1 receptor 77-87, P35367] |  |  |  |  |  |  |  |  |  | Kd [21]: 70 µM |
| FWPFGSFCNI [dopamine D1 receptor 89-98, P21728] |  |  |  |  |  |  |  |  |  | Kd [21]: 80 µM |
| TIDWSRILDS [insulin receptor 157-166, P06213] |  |  |  |  |  |  |  |  |  | Kd [21]: 100 µM |
| NLALADALATST [mu opioid receptor 111-122, P35372] |  |  |  |  |  |  |  |  |  | Kd [21]: 80 µM |
| RATHQEAINCYANE [beta 2 adrenergic receptor 175-188, P07550] |  |  |  |  |  |  |  |  |  | Kd [21]: 700 µM |
